In publication PMC1521118 (Environmental Health Perspectives, 1993):
Like-named read-outs stand apart in the source and are kept apart here.

How the values were obtained:
[1] = system: Salmonella typhimurium TA97
[2] = system: Salmonella typhimurium TA98
cytochrome P450 = conditions: phenobarbital-inducible cytochrome P450, presumably CYP2B; cited from earlier work
[3] = system: Bacillus subtilis-transforming DNA; conditions: reactive species toward Bacillus subtilis-transforming DNA; cited from earlier work
sulfotransferase = conditions: cited from earlier work
[4] = rat, in vivo; cited from earlier work
[5] = Sprague-Dawley rats; cited from earlier work
mouse sarcoma 180 cells = mouse sarcoma 180 cells in vitro; cited from earlier work
[6] = 10 female Wistar rats; at 15 months; cited from earlier work
[7] = system: sarcoma 180 ascites cells; conditions: mice bearing sarcoma 180 ascites cells; cited from earlier work
[8] = system: Salmonella typhimurium TA98; conditions: ref 35 (McCartney et al.); cited from earlier work
[9] = with (+) Aroclor 1254 rat hepatic S9 10% v/v, 100 ng/plate
[10] = absence of S9, 100 ng/plate or less

Cn1cnc2c(N)ncnc21 [9-Methyladenine]
histidine revertants/plate, TA97 [1, 9]: 88 + 4 histidine revertants/plate
histidine revertants/plate, TA98 ([2]; without (-) S9, 100 ng/plate): 21 + 6 histidine revertants/plate

Nc1ncnc2nc[nH]c12 [Adenine]
oxidation to adenine-1-N-oxide (cytochrome P450): failed to oxidize
histidine revertants/plate, TA97 [1, 9]: 104 + 12 histidine revertants/plate
histidine revertants/plate, TA98 ([2]; with (+) S9, 100 ng/plate): 76 + 11 histidine revertants/plate

CC(=O)On1cnc2ncnc-2c1N [1-acetoxyadenine]
mutagenicity [3]: weak mutagen

Nc1ccc2cc3ccccc3cc2c1 [2-Aminoanthracene, reference compound]
histidine revertants/plate, TA97 ([1]; Salmonella typhimurium): 600 histidine revertants/plate
histidine revertants/plate, TA98 ([2]; Salmonella typhimurium): 865 histidine revertants/plate

Nc1c2[nH]cnc2nc[n+]1[O-] [Adenine-1-N-oxide]
histidine revertants/plate, TA98 ([2]; without (-) S9, 100 ng/plate): 19 + 6 histidine revertants/plate
activity as a sulfate acceptor (sulfotransferase): inactive
tumor production [4]: failed to produce tumors

Cn1cnc2c(N)[n+]([O-])cnc21 [9-Methyladenine-1-N-oxide]
histidine revertants/plate, TA98 ([2]; with (+) S9, 100 ng/plate): 118 + 9 histidine revertants/plate

Nc1ncnc2c1ncn2Cc1ccccc1 [9-Benzyladenine]
histidine revertants/plate, TA98 ([2]; with (+) S9, 100 ng/plate): 131 + 18 histidine revertants/plate

ONc1ncnc2c1ncn2Cc1ccccc1 [9-Benzyl-6-hydroxylaminopurine]
mutagenic activity toward TA97 (in words) [1, 10]: highly active
mutagenic activity toward TA98 (in words) [2, 10]: inactive

ONc1ncnc2nc[nH]c12 [6-Hydroxylaminopurine]
oncogenicity [5]: completely inactive
effect on cells (mouse sarcoma 180 cells): induced mitotic inhibition and nuclear degeneration
tumors produced [6]: only one tumor
reversion rate relative to spontaneous reversion rate, TA97 ([1]; 1 ng/plate, without metabolic activation): twice the spontaneous reversion rate
toxicity toward TA97 ([1]; 100 ng/plate): toxic
histidine revertants/plate, TA97 ([1]; with (+) S9, 1 ng/plate): 113 + 4 histidine revertants/plate
toxicity toward TA98 ([2]; 1 ng/plate): still toxic
toxicity toward TA98 ([2]; 100 ng/plate): toxic
toxicity toward TA98 ([2]; concentration not given): extremely toxic
histidine revertants/plate, TA98 ([2]; with (+) S9, 1 ng/plate): toxic
histidine revertants/plate, TA98 ([2]; without (-) S9, 1 ng/plate): toxic
survival time [7]: prolonged the survival time
mutagenicity toward TA98 [8]: inactive
